The values that follow come from patent US20250304571A1, “BIOLOGICALLY ACTIVE COMPOUNDS AND METHODS THEREOF” (Suzhou Keen Therapeutics Co., Ltd., priority 2022, published 2025).

The test system of series [1] is HT-1080 (fibrosarcoma) cells. The series can be described thus: Cell viability (CellTiter Glo) assay, inhibition of HT-1080 cell proliferation. It counts as cell-based. As to conditions: Homo sapiens, HT-1080 cells, 72 hours. A general note: Cellular ATP, detected with luciferase, serves as a proxy for viable cell number.
Series [2] concerns KP4 (pancreatic ductal adenocarcinoma) cells. The series can be described thus: Cell viability (CellTiter Glo) assay, inhibition of KP4 cell proliferation. It is filed as cell-based. As to conditions: Homo sapiens, KP-4; KP4 cells, 72 hours, CellTiter Glo; read-out: IC50, inhibition of KP4 cell proliferation.
Series [3] relates to 786-O (renal cell carcinoma) cells. The series can be described thus: Cell viability (CellTiter Glo) assay, inhibition of 786-O cell proliferation. It is filed as cell-based. As to conditions: Homo sapiens, 786-0; 786-O cells, 72 hours, CellTiter Glo; read-out: IC50, inhibition of 786-O cell proliferation.
A further series concerns 786-O cells. Kind of series: Anti-proliferation activity in 786-O cells in the presence of a ferroptosis inhibitor (Ferrostatin-1 or Liproxstatin-1). It is filed as cell-based. As to conditions: Homo sapiens. Here is the method: In one assessment, cells (KP4, 786-0 and HT-1080) were seeded (700 cells/well, 1000 cells/well or 3000 cells/well) in 384-well or 96-well plates and incubated at 37° C./5% CO2 for 22-24 hours. A series of 8 different concentrations of compound stocks were created by 5-fold serial dilution in DMSO. These compounds were further diluted in culture media and were then added to cells (final concentrations: 100 μM, 20 μM, 4 μM, 0.8 μM, 0.16 μM, […].). After 72 hours of incubation, 30 μL of CellTiter Glo reagent (Promega) was added to each well and luminescence was measured after 10 minutes using SpectraMax M5/M5e (Molecular Devices). Luminescence from cells treated with DMSO alone was set as background and % of inhibition was calculated as follows: […]
Anti-proliferation activity of various compounds was also tested in the presence of an ferroptosis inhibitor, Ferrostatin-1 (2 μM) or Liproxstatin-1 (2 μM). Certain results are provided in Table 4 and Table 5 as examples. “A” indicates an IC50≤100 nM; “B” indicates an IC50 of >100 nM and ≤500 nM; “C” indicates an IC50>500 nM and ≤5 μM; and “D” indicates an IC50>5 μM.

Series [4] in a line: Whole blood stability, mouse. It is filed as in vitro ADME. As to conditions: 37° C.; for % Remaining: 1 μM; for half-life at 1 μM: male, Balb/c, fresh whole blood. Here is the method: For example, in some embodiments, provided compounds have suitable stability profiles for various applications including therapeutic uses. Various technologies are available in the art for assessing properties, e.g., stability, of compounds and compositions, and can be utilized in accordance with the present disclosure. Certain useful technologies are described herein as examples. In some embodiments, stability was assessed in fresh blood samples, e.g., of human or mouse.
In some embodiments, fresh blood samples were collected from male Balb/c mouse with EDTA-K2 as anti-coagulant. Blood was collected before experiment and stored at 2˜8° C., and equilibrated to room temperature before use. Compounds were dissolved in DMSO at 10 mM concentration. Glibenclamide, used as an internal standard (1S), was prepared in DMSO at 1 mg/mL concentration. An aliquot of 594 μL of blank blood was spiked with 6 μL of working solution (100 μM) to achieve 1 μM of final concentration for test compounds. Solution samples were incubated for 0, 10, 30, 60, 90 and 120 minutes at 37° C., e.g., in a water bath.
An Agilent ZORBAX XDB-C18 (3.5 μm, 50×2.1 mm) was used for HPLC analysis. Mobile phases were 0.1% formic acid in water (mobile phase A), and 0.1% formic acid in acetonitrile (mobile phase B). The injection volume was 10 μL. Mass spectrometer was calibrated and tuned for each test compound. The % remaining of test compound in blood was calculated using the following equation: […]

Series [5] in a line: Whole blood stability, human. It is filed as in vitro ADME. As to conditions: 37° C.; for % Remaining: 1 μM; for half-life at 1 μM: fresh whole blood.
Where [6] appears, read: 786-0, Ferrostatin-1 (2 μM), read-out: IC50, With Ferrostatin-1.
Where [7] appears, read: 786-0, no ferroptosis inhibitor, read-out: IC50, No Ferroptosis Inhibitor (Table 4).
The mark [8] stands for this setting: 786-0, 72 h, no ferroptosis inhibitor, read-out: IC50, No Ferroptosis Inhibitor (Table 5).

For orientation: half-life means how long it takes for the measured level to halve. Low readings indicate fast loss, high ones slow loss.

SMILES strings stand for the structures. Read-outs that look alike come from different tables or passages of the source. Bounds are passed on as bounds.

Regarding `C[C@@H]1CN(C(=N)OCc2nc(Nc3ccc(Oc4ccccc4)cc3)c3cc[nH]c3n2)C[C@H](C)N1C(=O)OC(C)(C)C` [Compound D2], the IC50 in series [1] was 100 to 500 nM; in series [2] it was below 100 nM.
In the case of `CN(C)C(=N)OCc1nc(Nc2ccc(Oc3ccccc3)cc2)c2cc[nH]c2n1` [Compound D3], the IC50 in series [1], in series [3] and in series [2] was 500 to 5000 nM in each case.
For `N=C(OCc1nc(Nc2ccc(Oc3ccccc3)cc2)c2cc[nH]c2n1)N1CCC(F)(F)CC1` [Compound D6], the IC50 with 786-O cells (setting [6]) is above 5000 nM; with 786-O cells (setting [7]) it was 100 to 500 nM; in series [3], 100 to 500 nM; in series [2] it was 100 to 500 nM.
For `CC1(C)CN(c2ccc(Oc3ccccc3)cc2)c2nc(COC(=N)N3CCC(F)(F)CC3)nc(N)c21` [Compound E2], the IC50 (in series [1]; in the series on 786-O cells (setting [8]); in series [3]) was below 100 nM each time. Also, the “% Remaining” value in series [4] (@ 240 min) is listed as 63.9% @ 240 min; in series [5] (@ 240 min) it was 69.7% @ 240 min. Moreover, the half-life at 1 μM in series [4] amounted to 6.47 h; in series [5] it was 7.85 h.
For `CC1(C)CN(c2ccc(Oc3ccccc3)cc2)c2nc(COC(=N)N3CCCCC3C(F)(F)F)nc(N)c21` (stereo not shown) [Compound E4], the IC50 in series [1] and in series [3] was below 100 nM throughout.
Turning to `CCN1CCN(C(=N)OCc2nc(N)c3c(n2)N(c2ccc(Oc4ccccc4)cc2)CC3(C)C)C2(CC2)C1=O` [Compound E5], the IC50 in series [1] and in series [3] was 100 to 500 nM in each case.
`N=C(OCc1nc(N)nc(Nc2ccc(Oc3ccccc3)cc2)n1)N1CCOCC1` [Compound F6]: the IC50 in series [1] is below 100 nM; in series [3] it was 100 to 500 nM; in series [2], below 100 nM. Moreover, the “% Remaining” value in series [4] (@ 120 min) turned out to be 78% @ 120 min; in series [5] (@ 120 min), 84% @ 120 min. Besides, the half-life at 1 μM in series [4] was 5.65 h; in series [5], 6.07 h.
Turning to `N=C(NC1CCCCC1)OCc1nc(N)nc(Nc2ccc(Oc3ccccc3)cc2)n1` [Compound F9], the IC50 in series [1] was 100 to 500 nM; in series [3], below 100 nM; in series [2], 100 to 500 nM.
For the compound `N=C(OCc1nc(N)nc(Nc2ccc(Oc3ccccc3)cc2)n1)N1CCC(F)(F)CC1` [Compound F13], the IC50 is below 100 nM in series [1]; above 5000 nM in the series with 786-O cells (setting [6]); below 100 nM with 786-O cells (setting [7]); below 100 nM in series [3]; below 100 nM in series [2]. The “% Remaining” value in series [4] (@ 240 min) was found to be 74% @ 240 min; in series [5] (@ 240 min), 57.6% @ 240 min. For the same compound, the half-life at 1 μM in series [4] turned out to be 7.95 h; in series [5], 5.35 h.
As to `N=C(OCc1nc(N)nc(Nc2ccc(Oc3ccccc3)cc2)n1)N1CCCCC1=O` [Compound F18], the IC50 in series [1] lay within 500 to 5000 nM.
In the case of `CCN1CCN(C(=N)OCc2nc(N)nc(Nc3ccc(Oc4ccccc4)cc3)n2)C2(CC2)C1=O` [Compound F19], the IC50 was 500 to 5000 nM in series [1], 100 to 500 nM in the series with 786-O cells (setting [8]) and 100 to 500 nM in series [3].
For the compound `N=C(NC12CC3CC(CC(C3)C1)C2)OCc1nc(N)nc(Nc2ccc(Oc3ccccc3)cc2)n1` [Compound F20], the IC50 (in series [1]; in the series on 786-O cells (setting [8]); in series [3]) was 100 to 500 nM each time.
Regarding `CN(C(=N)OCc1nc(N)nc(Nc2ccc(Oc3ccccc3)cc2)n1)C1CCCCC1` [Compound F22], the IC50 is 100 to 500 nM in series [1], below 100 nM with 786-O cells (setting [8]) and below 100 nM in series [3].
In the case of `CN(C)C(=N)OCc1nc(N)nc(Nc2ccc(Oc3ccccc3)cc2)n1` [Compound F31], the IC50 in series [1], in series [3] and in series [2] was 100 to 500 nM in each case.
